Columns and labels:
Assay type in all cases: in vivo, rat
MPS VI rats [1] = test: Femora and tibia length by microCT / caliper, MPS VI rats; settings: 37 weeks of age, vs untreated MPS VI
Protocol: (§1) Three-dimensional images of the 37-week-old femora from age-matched normal, untreated and treated MPS VI rats were obtained using the eXplore Locus SP PreClinical Specimen microCT system (GE Healthcare; London, Ontario, Canada). Scans were performed at a voxel size of 14.4 μm. The scan protocol consisted of 3600 image acquisitions over a five hour scan (acquisition parameters: 80 kVp, 80 uA, 3 second exposure time [˜690], 0.010″ aluminum beam filter). A calibration phantom containing air, water, and hydroxyapatite (SB3: Gamex RMI, Middleton, Wis., USA) was included in all scans to adjust for the variability in X-ray attenuation inherent to independent scan sessions.
Limb and trachea measurements were taken at the end of the study (37 weeks of age). The length of each femur was measured from the microCT images using the Microview software. The greater trochanter was used as the proximal margin of the femur, whereas the extent of the distal condyles was considered the distal margin. Thus, the length of each femur was computed roughly along the vertical axis of the bone. For validation, the physical femora and tibia lengths, as well as the width of the tracheas, was measured with a digital caliper. The mean of the two treatment groups (ERT and combined ERT/CNTO1081) were compared using standard student t test analysis.

MPS VI rats [2] = test: MicroCT analysis of bone micro-architecture (trabecular, cortical, robustness), MPS VI rats; settings: mid-diaphyseal femur, vs untreated; fell short of statistical significance
Protocol: as §1
A representative mid-diaphyseal region of each femoral microCT image was isolated for analysis. […] The analysis region was not restricted by measured size to accommodate variances in bone length. […] The MicroView software was employed to quantify morphological traits.
The microCT images were further processed to quantify the tissue mineral density (TMD) of cortical bone within each sample. […] TMD was calculated by converting the gray-scale values of bone voxels from Hounsfield units (HU) to mineral values (mg/cc of HA) through the use of a calibration phantom containing air, water, and HA (Gamex RMI, Middleton, Wis., USA). […]

MPS VI rats [3] = test: Synovium / knee joint histology, MPS VI rats; settings: MPS VI rats treated 8 months, knee cross sections
Protocol: Femora from 37-week-old normal, untreated MPS VI and treated MPS VI rats were fixed, embedded, sectioned, and stained with toluidine blue and H & E. Immunohistochemical studies were performed as well. For immunohistochemistry, sections were fixed with 4% paraformaldehyde/PBS, permeabilized with 0.5% Triton-X-100, blocked, and incubated overnight at 4° C. with primary rabbit polyclonal anti-mouse collagen type IIA1 (rabbit polyclonal […], Santa Cruz Biotechnology) and TNF-α antibody (goat polyclonal sc-1348, Santa Cruz Biotechnology). After several rinses with PBS, visualization was accomplished using a fluorescent secondary antibody, donkey anti-goat IgG-Cy-3 (711-165-152, Jackson Laboratory). Nuclei were stained with 1 mg/ml bis-benzimide Hoechst dye (Sigma-Aldrich) for 10 min, rinsed, and sections were mounted with an anti-bleaching mounting media. Slides were visualized and photographed with a confocal laser-scanning microscope (Carl Zeiss 510 Meta).
FIG. 1A summarizes the serum levels of TNF-α and RANKL at the end of the study. Both inflammatory markers were highly elevated in untreated MPS VI rats as compared to normal animals, and both treatment protocols led to significant reductions. […] The synovial membranes (*) were hyperplastic in untreated MPS VI rats, leading to the formation of synovial villi (SV). […]

articular chondrocytes = test: Immunoblot of articular chondrocytes from treated MPS VI rats; settings: western blot, vs untreated MPS VI
From the text: Tracheas, femora, and tibias were collected from the control and treated MPS VI rats, and placed in either phosphate buffered saline for the isolation of fibroblast-like synoviocytes (FLS) and articular chondrocytes, or fixed in neutral buffered 10% formalin (Sigma Chemical) for histology, microCT analysis, and immunohistochemistry (see infra). The fixed bones were decalcified in 8% formic acid (Sigma Chemical) for 5 days, paraffin embedded, and sectioned (5 μm) for subsequent staining Primary FLS and articular chondrocyte cultures were established as previously described (Simonaro et al., “Joint and Bone Disease in Mucopolysaccharidosis VI and VII: Identification of New Therapeutic Targets and Biomarkers Using Animal Models,” Pediatr. Res. 57:701-707 (2005); Simonaro et al., “Mechanism of Glycosaminoglycan-Mediated Bone & Joint Disease: Implications for the Mucopolysaccharidoses & Other Connective Tissue Diseases,” Amer. J. Path. 172:112-122 (2008), both of which are hereby incorporated by reference in their entirety), and expression of inflammatory and apoptosis markers were assessed by western blotting.
Articular chondrocytes from 37-week-old normal, untreated and treated MPS VI rats were collected using sequential enzyme digestion of cartilage, pelleted and lysed for immunoblot analysis as previously described (Simonaro et al., “Mechanism of Glycosaminoglycan-Mediated Bone & Joint Disease: Implications for the Mucopolysaccharidoses & Other Connective Tissue Diseases,” Amer. J. Path. 172:112-122 (2008), which is hereby incorporated by reference in its entirety). The membranes were incubated with rabbit polyclonal anti-collagen type IIA1 (sc-8784-R, Santa Cruz Biotechnology), rabbit polyclonal anti-collagen type X (AB58632, Abcam), rabbit polyclonal anti-ADAMTS5 (sc-28887, Santa Cruz Biotechnology), rabbit polyclonal anti-PARP (sc-7150, Santa Cruz Biotechnology), and rabbit polyclonal anti-GAPDH (sc-25778, Santa Cruz Biotechnology), as a loading control. The bound antibodies were recognized by secondary antibodies conjugated to HRP (NA934V), GE Healthcare). […]

recombinant human N-acetylgalactosamine-4-sulfatase [ERT]
increase in femora length (MPS VI rats [1]): No improvements were observed
increase in tibia length (MPS VI rats [1]): No improvement was observed
cortical area and relative cortical area (MPS VI rats [2]): greater
synovial inflammation and formation of villi (MPS VI rats [3]): did not reduce
ADAMTS5 expression in articular chondrocytes (articular chondrocytes): reduced
PARP (apoptosis marker) expression in articular chondrocytes (articular chondrocytes): only reduced by the combined treatment protocol
collagen X expression in articular chondrocytes (articular chondrocytes): increased

— US9155784B2, “Anti-TNF-α therapy for the mucopolysaccharidoses and other lysosomal disorders” (Icahn School of Medicine at Mount Sinai, priority 2011, dated 2015)
